Source: PubChem BioAssay AID248 (DTP/NCI, 2004)
Where “and” joins values, the source holds several entries; their conditions need not be identical. Equal entries are not always repeated. Inconclusive results and toxic doses are left out. Rule as the data show it: active = T/C of 150% or more; inactive = T/C below 125%.

Test system: L1210 leukemia ip in BDF1 mice, survival T/C
Test: NCI In Vivo Anticancer Drug Screen. Data for tumor model L1210 Leukemia (intraperitoneal) in B6D2F1 (BDF1) mice
Conditions: endpoint: mean survival time, higher = longer survival
Procedure, shortened: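 Tumor cells were implanted, animals were treated, and survival was followed. The result divides the treated measurement by the vehicle-control measurement.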

Measured: T/C

Nc1n[nH]c(N)n1
inactive: dose: 12.5 mg/kg/injection, schedule: Q#A X020 (ip), vehicle: saline 105 % of control | dose: 25.0 mg/kg/injection, schedule: Q01DX010 (ip), vehicle: saline 103 % of control | dose: 25.0 mg/kg/injection, schedule: Q#A X020 (ip), vehicle: saline 109 % of control | dose: 28.0 mg/kg/injection, schedule: Q03HX040 (ip), vehicle: water 105 % of control | dose: 32.0 mg/kg/injection, schedule: Q01DX015 (ip), vehicle: saline 94 % of control | dose: 48.0 mg/kg/injection, schedule: Q## X008 (ip), vehicle: saline 101 % of control | dose: 50.0 mg/kg/injection, schedule: Q01DX010 (ip), vehicle: saline 110 % of control | dose: 50.0 mg/kg/injection, schedule: Q06HX068 (ip), vehicle: water 106 % of control | dose: 56.0 mg/kg/injection, schedule: Q03HX008 (ip), vehicle: water 103 % of control | dose: 56.0 mg/kg/injection, schedule: Q03HX024 (ip), vehicle: water 111 % of control | dose: 63.0 mg/kg/injection, schedule: Q01DX015 (ip), vehicle: saline 102 % of control | dose: 96.0 mg/kg/injection, schedule: Q## X008 (ip), vehicle: saline 102 % of control | dose: 100.0 mg/kg/injection, schedule: Q01DX009 (ip), vehicle: saline 108 % of control | dose: 100.0 mg/kg/injection, schedule: Q01DX009 (sc), vehicle: saline 102 % of control | dose: 100.0 mg/kg/injection, schedule: Q06HX068 (ip), vehicle: water 110 % of control | dose: 100.0 mg/kg/injection, schedule: Q#A X034 (ip), vehicle: water 107 % of control | dose: 111.0 mg/kg/injection, schedule: Q01DX Z (ip), vehicle: methylcellulose (MC) 100 % of control | dose: 112.0 mg/kg/injection, schedule: Q12HX018 (ip), vehicle: water 111 % of control | dose: 125.0 mg/kg/injection, schedule: Q01DX015 (ip), vehicle: saline 110 % of control | dose: 125.0 mg/kg/injection, schedule: Q03HX008 (oral), vehicle: water 107 % of control | dose: 125.0 mg/kg/injection, schedule: Q03HX024 (oral), vehicle: water 105 % of control | dose: 192.0 mg/kg/injection, schedule: Q## X008 (ip), vehicle: saline 104 % of control | dose: 200.0 mg/kg/injection, schedule: Q01DX001 (ip), vehicle: saline 104 % of control and 107 % of control | dose: 200.0 mg/kg/injection, schedule: Q01DX001 (sc), vehicle: saline 104 % of control | dose: 200.0 mg/kg/injection, schedule: Q01DX006 (iv), vehicle: saline 105 % of control | dose: 200.0 mg/kg/injection, schedule: Q01DX009 (sc), vehicle: saline 108 % of control | dose: 200.0 mg/kg/injection, schedule: Q01DX010 (ip), vehicle: saline 98 % of control | dose: 200.0 mg/kg/injection, schedule: Q01DX017 (ip), vehicle: water 111 % of control | dose: 200.0 mg/kg/injection, schedule: Q## X003 (ip), vehicle: saline 110 % of control | dose: 200.0 mg/kg/injection, schedule: Q## X040 (ip), vehicle: saline 104 % of control | dose: 225.0 mg/kg/injection, schedule: Q12HX010 (ip), vehicle: water 107 % of control | dose: 250.0 mg/kg/injection, schedule: Q03HX008 (oral), vehicle: water 107 % of control | dose: 250.0 mg/kg/injection, schedule: Q03HX024 (oral), vehicle: water 102 % of control | dose: 256.0 mg/kg/injection, schedule: Q## X088 (ip), vehicle: other 98 % of control | dose: 384.0 mg/kg/injection, schedule: Q## X008 (ip), vehicle: saline 103 % of control | dose: 395.0 mg/kg/injection, schedule: Q01DX001 (ip), vehicle: saline 101 % of control and 110 % of control | dose: 400.0 mg/kg/injection, schedule: Q01DX001 (ip), vehicle: saline 106 % of control | dose: 400.0 mg/kg/injection, schedule: Q01DX001 (oral), vehicle: water 102 % of control | dose: 400.0 mg/kg/injection, schedule: Q01DX001 (sc), vehicle: saline 102 % of control | dose: 400.0 mg/kg/injection, schedule: Q01DX009 (sc), vehicle: saline 108 % of control | dose: 400.0 mg/kg/injection, schedule: Q01DX010 (ip), vehicle: saline 104 % of control | dose: 400.0 mg/kg/injection, schedule: Q## X003 (ip), vehicle: saline 106 % of control | dose: 400.0 mg/kg/injection, schedule: Q## X024 (ip), vehicle: saline 100 % of control | dose: 400.0 mg/kg/injection, schedule: Q## X040 (ip), vehicle: saline 108 % of control | dose: 450.0 mg/kg/injection, schedule: Q01DX001 (ip), vehicle: water 103 % of control | dose: 500.0 mg/kg/injection, schedule: Q01DX001 (ip), vehicle: water 97 % of control and 102 % of control | dose: 500.0 mg/kg/injection, schedule: Q01DX001 (oral), vehicle: water 104 % of control | dose: 500.0 mg/kg/injection, schedule: Q01DX005 (oral), vehicle: water 101 % of control | dose: 500.0 mg/kg/injection, schedule: Q01DX Z (ip), vehicle: methylcellulose (MC) 110 % of control | dose: 500.0 mg/kg/injection, schedule: Q03HX008 (oral), vehicle: water 108 % of control | dose: 500.0 mg/kg/injection, schedule: Q04DX003 (oral), vehicle: water 105 % of control | dose: 500.0 mg/kg/injection, schedule: Q## X006 (oral), vehicle: water 102 % of control | dose: 592.0 mg/kg/injection, schedule: Q01DX001 (ip), vehicle: saline 105 % of control and 108 % of control | dose: 675.0 mg/kg/injection, schedule: Q06HX016 (ip), vehicle: saline 100 % of control | dose: 768.0 mg/kg/injection, schedule: Q## X008 (ip), vehicle: saline 111 % of control | dose: 800.0 mg/kg/injection, schedule: Q01DX001 (ip), vehicle: saline 102 % of control and 105 % of control and 106 % of control | dose: 800.0 mg/kg/injection, schedule: Q01DX001 (oral), vehicle: water 105 % of control | dose: 800.0 mg/kg/injection, schedule: Q01DX001 (sc), vehicle: saline 110 % of control | dose: 800.0 mg/kg/injection, schedule: Q## X003 (ip), vehicle: saline 108 % of control | dose: 800.0 mg/kg/injection, schedule: Q## X024 (ip), vehicle: saline 106 % of control | dose: 806.0 mg/kg/injection, schedule: Q01DX001 (ip), vehicle: saline 104 % of control | dose: 806.0 mg/kg/injection, schedule: Q08DX002 (ip), vehicle: saline 101 % of control | dose: 888.0 mg/kg/injection, schedule: Q01DX001 (ip), vehicle: saline 106 % of control and 111 % of control | dose: 900.0 mg/kg/injection, schedule: Q01DX001 (ip), vehicle: water 104 % of control | dose: 900.0 mg/kg/injection, schedule: Q03HX024 (ip), vehicle: saline 95 % of control | dose: 900.0 mg/kg/injection, schedule: Q#A X018 (ip), vehicle: water 94 % of control | dose: 1000.0 mg/kg/injection, schedule: Q01DX001 (ip), vehicle: water 101 % of control and 103 % of control | dose: 1000.0 mg/kg/injection, schedule: Q01DX001 (oral), vehicle: water 98 % of control | dose: 1000.0 mg/kg/injection, schedule: Q04DX003 (oral), vehicle: water 107 % of control | dose: 1200.0 mg/kg/injection, schedule: Q01DX001 (ip), vehicle: saline 105 % of control | dose: 1203.0 mg/kg/injection, schedule: Q01DX001 (ip), vehicle: saline 107 % of control | dose: 1203.0 mg/kg/injection, schedule: Q04DX003 (ip), vehicle: saline 110 % of control | dose: 1203.0 mg/kg/injection, schedule: Q08DX002 (ip), vehicle: saline 102 % of control | dose: 1333.0 mg/kg/injection, schedule: Q01DX001 (ip), vehicle: saline 106 % of control and 110 % of control | dose: 1600.0 mg/kg/injection, schedule: Q01DX001 (ip), vehicle: saline 107 % of control and 110 % of control | dose: 1600.0 mg/kg/injection, schedule: Q01DX001 (oral), vehicle: water 108 % of control | dose: 1600.0 mg/kg/injection, schedule: Q01DX001 (sc), vehicle: saline 107 % of control | dose: 1600.0 mg/kg/injection, schedule: Q01DX Z (oral), vehicle: saline 109 % of control | dose: 1796.0 mg/kg/injection, schedule: Q01DX001 (ip), vehicle: saline 109 % of control | dose: 1796.0 mg/kg/injection, schedule: Q08DX002 (ip), vehicle: saline 107 % of control | dose: 1800.0 mg/kg/injection, schedule: Q01DX001 (ip), vehicle: water 103 % of control | dose: 2000.0 mg/kg/injection, schedule: Q01DX001 (ip), vehicle: saline 110 % of control | dose: 2000.0 mg/kg/injection, schedule: Q01DX001 (ip), vehicle: water 101 % of control and 103 % of control | dose: 2000.0 mg/kg/injection, schedule: Q01DX001 (oral), vehicle: water 96 % of control | dose: 2000.0 mg/kg/injection, schedule: Q01DX Z (ip), vehicle: saline 96 % of control | dose: 2000.0 mg/kg/injection, schedule: Q01DX Z (ip), vehicle: water 94 % of control | dose: 2680.0 mg/kg/injection, schedule: Q08DX002 (ip), vehicle: saline 110 % of control | dose: 4000.0 mg/kg/injection, schedule: Q01DX001 (ip), vehicle: water 108 % of control | dose: 4000.0 mg/kg/injection, schedule: Q## X006 (oral), vehicle: water 107 % of control
